Laboratory results taken from PubChem BioAssay (NCI).
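Step 1: Grow cells in 96-well plates. Step 2: Expose to compound for 48 hours at 5 concentrations. Step 3: Interpolate endpoints linearly; if unreached, use highest concentration. The concentration for full growth arrest is given as TGI.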 Where a SMILES comes first, the peptide text is derived from it. [ ]: non-standard residue; d: D form. The star is where a group is joined. Bn2Val = CC(C)[C@@H](C(=O)*)N(Cc1ccccc1)Cc1ccccc1; NHPiperonyl = c1cc2c(cc1CN*)OCO2; NMeV = CN[C@H](C(=O)O)C(C)C; dNMeA = CN[C@H](C)C(=O)O

Columns and labels:
Assay in all cases: inhibition of tumour cell growth, NCI panel, 48 h
MDA-MB-231 breast = test system: MDA-MB-231 breast
786-0 renal = test system: 786-0 renal
PC-3 prostate = test system: PC-3 prostate
HOP-62 NSCLC = test system: HOP-62 NSCLC
A549 NSCLC = test system: A549 NSCLC
HCC-2998 colon = test system: HCC-2998 colon
SF-295 CNS = test system: SF-295 CNS
ACHN renal = test system: ACHN renal
COLO 205 colon = test system: COLO 205 colon
SN12C renal = test system: SN12C renal
NCI/ADR-RES ovarian = test system: NCI/ADR-RES ovarian
OVCAR-5 ovarian = test system: OVCAR-5 ovarian
OVCAR-8 ovarian = test system: OVCAR-8 ovarian
T-47D breast = test system: T-47D breast
K-562 leukemia = test system: K-562 leukemia
SNB-75 CNS = test system: SNB-75 CNS
SK-MEL-28 melanoma = test system: SK-MEL-28 melanoma
CAKI-1 renal = test system: CAKI-1 renal
DU-145 prostate = test system: DU-145 prostate
NCI-H226 lung = test system: NCI-H226 lung

| Structure (SMILES) | TGI (MDA-MB-231 breast) [µM] | TGI (786-0 renal) [µM] | TGI (PC-3 prostate) [µM] | TGI (HOP-62 NSCLC) [µM] | TGI (A549 NSCLC) [µM] | TGI (HCC-2998 colon) [µM] | TGI (SF-295 CNS) [µM] | TGI (ACHN renal) [µM] | TGI (COLO 205 colon) [µM] | TGI (SN12C renal) [µM] | TGI (NCI/ADR-RES ovarian) [µM] | TGI (OVCAR-5 ovarian) [µM] | TGI (OVCAR-8 ovarian) [µM] | TGI (T-47D breast) [µM] | TGI (K-562 leukemia) [µM] | TGI (SNB-75 CNS) [µM] | TGI (SK-MEL-28 melanoma) [µM] | TGI (CAKI-1 renal) [µM] | TGI (DU-145 prostate) [µM] | TGI (NCI-H226 lung) [µM] |
| --- | --- | --- | --- | --- | --- | --- | --- | --- | --- | --- | --- | --- | --- | --- | --- | --- | --- | --- | --- | --- |
| Clc1ccc(-c2c3nc(c(-c4ccc(Cl)cc4)c4ccc([nH]4)c(-c4ccc(Cl)cc4)c4nc(c(-c5ccc(Cl)cc5)c5ccc2[nH]5)C=C4)C=C3)cc1 | > 100 | > 100 | > 100 | > 100 | > 100 | > 100 | > 100 | > 100 | > 100 | > 100 | > 100 | > 100 | > 100 | > 100 | > 100 | 63.4 | > 100 | > 100 |  |  |
| COc1c(N2CCCCC2)c2c(=O)c3ccccc3oc2c2cc(C)oc12 | 44.2 | > 100 | 51.5 | > 100 | > 100 | > 100 | > 100 | 53.7 | 18.3 | 84.8 | > 100 | > 100 | > 100 |  | > 100 | 42.9 | > 100 | 37.3 | 77.5 | 45.4 |
| CC1OC1P(=O)(O)O (centres undefined) | > 100 | > 100 | > 100 | > 100 | > 100 | > 100 | > 100 | > 100 | > 100 | > 100 |  | > 100 | > 100 | > 100 | > 100 | > 100 | > 100 | > 100 | > 100 |  |
| CCOC(=O)CC[C@H](NC(=O)c1ccc(CNc2nc3cc(C(F)(F)F)ccc3nc2C(=O)OCC)cc1)C(=O)OCC | > 48.4 | 18.8 | > 89.3 | > 46 | > 100 |  | 24.7 | > 93.2 | > 100 | > 100 | > 100 | > 86 | > 100 | 60.8 | > 100 | 41.3 | > 100 | 29.5 | > 100 |  |
| O=S(Nc1ccccc1)c1ccccc1Oc1ccccc1 (centres undefined) | > 100 | > 100 | > 100 | > 100 | > 100 | 87.1 | > 100 | > 100 | > 100 | > 100 | > 100 | > 100 | > 100 |  | > 100 | > 100 | > 100 | > 100 | > 100 | > 100 |
| CN(C)CCNC(=O)c1ccccc1Nc1c(Cl)cccc1Cl |  | 18.9 |  | 27.2 | 25.3 | 23.7 |  | 21 | 25.8 | 28.7 |  | 22.2 | 27.8 |  | 36.2 | 9.52 | 28.2 |  |  | 29.4 |
| COc1ccc2c(c1)CC[C@@H]1C2CC[C@]2(C)C(=N\O)/C(=N/O)CC12 (some centres undefined) |  | 31.8 |  | 26 | 24.7 | 37.8 | 23.9 | 33.6 | 31.6 | 36.5 |  | 25.8 | 33.7 |  | 36 |  |  | 24.1 |  | 27.1 |
| Cc1nc2ccc(F)cc2c2c1CCN2c1ccccc1 |  | > 100 | 86.2 | > 100 | 68 | 38.2 | 34.4 | 67 | 27.1 |  | 68 |  | 44.6 | 85.8 | 33.4 | 79.1 | 34.3 |  | > 100 | 41.8 |
| COc1cc(C(=O)O)cc2c1[nH]c1ccccc12 |  | > 25 |  | > 25 | > 25 | > 25 |  | > 25 | > 25 | > 25 |  | > 25 | > 25 |  | > 25 |  | > 25 |  |  | > 25 |
| SCc1ccc(-c2ccc(CS)cc2)cc1 | 31 | 59.5 | 34 | 14 | 39.6 | 30.6 | 24.9 | 43.1 | 37.4 | > 81.2 | 32.3 | 27 | 53.7 | 41.6 | 26.9 | 28.1 | 24.3 | 18.5 |  | 36.9 |
| O=C1c2ccccc2-c2nc(-c3cccs3)cc3c2c1nc1ccccc13 | > 100 | > 100 | > 100 | 77.6 | 63.5 | 68 | > 100 | > 100 | 37.5 | > 100 | > 100 | > 100 | > 100 |  | > 100 | > 100 | 36.8 | > 100 | 31 | > 100 |
| CC(C)[C@H](NC(=O)[C@H](C(C)C)N(Cc1ccccc1)Cc1ccccc1)C(=O)N(C)[C@H](C(=O)N1CCC[C@H]1C(=O)N(C)[C@H](C)C(=O)NCc1ccc2c(c1)OCO2)C(C)C (Bn2Val-V[NMeV]P[dNMeA]-NHPiperonyl) | > 100 | > 83.2 | 89.9 | > 100 | > 100 | 37.1 | > 100 | > 100 |  |  | > 100 | 23.9 | > 100 |  | 54 |  | > 100 | > 100 | > 33.2 | > 100 |
| NCc1ccc(O)c(O)c1O | 43.5 | 30.1 | > 100 | > 73.9 | 63.2 | > 81.7 | > 57.7 | 55.4 | 35.5 | 37.3 |  | 40.5 | 49.1 | 71.6 | 60.6 | > 100 | > 100 | > 46.4 | > 100 | > 66.7 |
| NNC(=O)CC(=O)Nc1ccccc1Cl | > 100 | > 100 | > 100 | > 100 | > 100 |  | > 100 | > 100 | > 100 | > 100 | > 100 | > 100 | > 100 | > 100 | > 100 | > 100 | > 100 | > 100 | > 100 |  |
| Nc1cc(N2CCOCC2)nc(=O)n1-c1ccccc1 |  | > 100 | > 100 | > 100 | > 100 | > 100 | > 100 | > 100 | > 100 | > 100 | > 100 | > 100 | > 100 | > 100 | > 100 | > 100 | > 100 | > 100 | > 100 | > 100 |
| CC1(C)CC(=O)c2c([nH]c(=S)c(C#N)c2-c2ccc(Br)cc2)C1 | > 100 | > 100 | > 100 | > 100 | > 100 | > 100 | > 100 | > 100 |  | > 100 | > 100 | > 100 | > 100 |  | > 100 | > 100 | > 100 | > 100 | > 100 | > 100 |
| S=C(Nc1ccc(Cl)cc1)c1ccc(CN2CCCCC2)s1 |  | > 100 | 73.4 |  | > 100 | 21.6 |  | 60.2 | 14.2 | 39.2 | > 100 | 32.1 | 27.1 |  | 13.9 |  | 37.2 | 52.1 | > 100 |  |
| O=C1CSC(c2c[nH]c3ccccc23)N1c1cccc([N+](=O)[O-])c1 (centres undefined) | > 100 | > 100 | > 100 | > 100 | > 100 | > 100 | > 100 |  | > 100 | > 100 |  | > 100 | > 100 | > 100 | > 100 | > 100 | > 100 |  | > 100 |  |
| c1ccc(C2(c3ccccc3)S/C(=C3/SC(c4ccccc4)(c4ccccc4)c4ccccc43)c3ccccc32)cc1 | > 100 | > 100 | > 100 | > 100 | > 100 | > 100 | > 100 | > 100 | > 100 | > 100 | > 100 | > 100 | > 100 |  | > 100 | > 100 | > 100 | > 100 | > 100 | > 100 |
| [N-]=[N+]=CC(=O)OC1CCc2ccccc21 (centres undefined) | > 100 | > 100 | > 100 | > 100 |  | > 100 | > 100 | 30.3 | > 100 | > 100 |  | > 100 |  |  | > 100 |  | > 100 | 52.5 | 48.7 | > 100 |
| CC(C)NC1CCCCC2c3cc(F)ccc3[C@]12O (some centres undefined) |  | > 100 |  | > 100 | > 100 | > 100 | > 100 | > 100 | > 100 | > 100 |  | > 100 | > 100 |  | > 100 | > 100 | > 100 | > 100 |  | > 100 |
| O=C1OCCC12CN(Cc1ccccc1)N=N2 (centres undefined) | > 100 | > 100 | > 100 | > 100 | > 100 | > 100 | > 100 | > 100 | > 100 | > 100 | > 100 | > 100 | > 100 | > 100 | > 100 |  | > 100 | > 100 | > 100 |  |
| Clc1ccc(/C=c2\nc(-c3ccccc3)n3c2nc2ccccc23)cc1 | > 100 | > 100 | 87.8 | > 100 | > 100 |  | > 100 | 50.6 | > 100 | > 100 | > 100 | > 100 | > 100 |  | > 100 |  | 0.952 | > 100 | > 100 | > 100 |
| Cc1ccc(N/C(=C(/C(Cl)=C(Cl)Cl)[N+](=O)[O-])n2nnc3ccccc32)cc1 |  | 38.4 | 33.8 | 39.7 | 37.3 | 35.1 | 36.7 | 44.9 | 28.4 | 43.7 | 69.5 | 41 | 38 | 52.5 | > 100 | 35.4 | 33.8 | 31.6 |  | 35.3 |
| Cn1cc(S(=O)(=O)NC(=O)Nc2ccc(Cl)cc2)c(=O)c2ccc(Cl)cc21 | > 100 | > 100 | > 100 | > 100 | > 100 | > 100 | > 100 | > 100 |  | > 100 | > 100 | > 100 | > 100 | > 100 | > 100 | > 100 | > 100 | > 100 |  | > 100 |
| Cc1ccc([N+]2=NC(c3ccc([N+](=O)[O-])cc3)=NN(c3ccccc3)C2)cc1 |  | > 100 |  | > 100 | > 100 | > 100 | > 100 | > 100 | > 100 | > 100 |  | > 100 | > 100 |  | > 100 |  | > 100 |  |  | > 100 |
| COC1CC(=O)C2C(=O)N(c3ccccc3)C(=O)C23C(C(=O)c2ccccc2)=C(C)NC13O (centres undefined) | 40 | 5.38 | 34.5 | 41.9 | > 100 |  | > 100 | 37.5 | 25.1 | 37.1 | 50.9 | 54.5 | > 100 | 14.1 | 0.21 |  | 23.6 | 22.1 | 27.8 |  |
